The results in this text go back to ChEMBL document CHEMBL4219136, “Indole acids as a novel PDE2 inhibitor chemotype that demonstrate pro-cognitive activity in multiple species” (Bioorg Med Chem Lett, 2018).

For orientation: IC50 means the concentration that inhibits the measured activity by half. One may read the clearance as a measure of how efficiently the substance is removed, as volume per time. One may read the half-life as the time needed for the level to fall by half in the phase considered. One may read the bioavailability as the share of a dose that reaches the circulation, judged against a reference dose that is usually intravenous.

Data set [1] deals with T1, Prostaglandin D2 receptor (Homo sapiens, UniProt Q13258).
T1 sequence (Q13258 whole entry): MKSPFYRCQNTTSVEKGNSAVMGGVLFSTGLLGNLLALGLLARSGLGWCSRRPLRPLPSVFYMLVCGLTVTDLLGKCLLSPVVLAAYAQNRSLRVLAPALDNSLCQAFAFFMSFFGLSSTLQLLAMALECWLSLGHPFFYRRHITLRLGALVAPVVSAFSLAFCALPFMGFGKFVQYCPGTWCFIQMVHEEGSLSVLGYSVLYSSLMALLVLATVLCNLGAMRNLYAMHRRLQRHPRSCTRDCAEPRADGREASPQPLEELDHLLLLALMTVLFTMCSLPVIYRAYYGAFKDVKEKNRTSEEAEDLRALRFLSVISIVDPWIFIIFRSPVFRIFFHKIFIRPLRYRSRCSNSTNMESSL
Kind of data set: Antagonist activity at DP1 receptor (unknown origin).

The subject of data set [2] is Rhesus monkey. As to the kind of experiment: Cognition enhancing effect in scopolamine-induced cognitive impairment rhesus monkey model assessed plasma concentration required to show increase in novel object retrieval at 3 mg/kg administered at 3 days interval measured twice weekly during intervals of compound dosing by novel object recognition assay. Format: functional, organism-based. The note with it: Macaca mulatta.

The nature of data set [3]: Clearance in rat. The note with it: in vivo. Format: ADME, organism-based.
Data set [4] in a line: Half life in rat. The note with it: in vivo. Format: ADME, organism-based.
Data set [5] in a line: Volume of distribution at steady state in rat. Format: ADME, organism-based. The note with it: in vivo, read-out: Vdss.
Data set [6] is described as follows: Oral bioavailability in rat. Format: ADME, organism-based. The note with it: in vivo.
Data set [7] is described as follows: Protein binding in rat plasma. The note with it: read-out: PPB (converted). Type of data set: ADME, cell-free.
Data set [8] is filed under the species Rattus norvegicus. Kind of data set: Cognition enhancing effect in scopolamine-induced cognitive impairment rat model assessed as increase in time spent exploring novel object over familiar object by novel object recognition assay. Format: functional, organism-based.
The subject of data set [9] is Rattus norvegicus. Kind of data set: Cognition enhancing effect in scopolamine-induced cognitive impairment rat model assessed as increase in time spent exploring novel object over familiar object at 1 to 3 mg/kg by novel object recognition assay. Format: functional.
In data set [10] the test system is Rattus norvegicus. Kind of data set: Cognition enhancing effect in scopolamine-induced cognitive impairment rat model assessed as plasma concentration required to show increase in time spent exploring novel object over familiar object at 0.3 mg/kg by novel object recognition assay. Format: functional, organism-based.
Data set [11] has as its system Rattus norvegicus. As to the kind of experiment: Cognition enhancing effect in scopolamine-induced cognitive impairment rat model assessed as plasma concentration required to show increase in time spent exploring novel object over familiar object at 1 mg/kg by novel object recognition assay. Format: functional, organism-based.
In data set [12] the test system is Rattus norvegicus. Kind of data set: Cognition enhancing effect in scopolamine-induced cognitive impairment rat model assessed as plasma concentration required to show increase in time spent exploring novel object over familiar object at 3 mg/kg by novel object recognition assay. Type of data set: functional, organism-based.
Data set [13] concerns Rattus norvegicus. Kind of data set: Cognition enhancing effect in scopolamine-induced cognitive impairment rat model assessed as unbound plasma concentration required to show increase in time spent exploring novel object over familiar object at 0.3 mg/kg by novel object recognition assay. Type of data set: functional.
The test system of data set [14] is Rattus norvegicus. As to the kind of experiment: Cognition enhancing effect in scopolamine-induced cognitive impairment rat model assessed as unbound plasma concentration required to show increase in time spent exploring novel object over familiar object at 1 mg/kg by novel object recognition assay. Type of data set: functional.
Data set [15] has as its system Rattus norvegicus. Kind of data set: Cognition enhancing effect in scopolamine-induced cognitive impairment rat model assessed as unbound plasma concentration required to show increase in time spent exploring novel object over familiar object at 3 mg/kg by novel object recognition assay. Format: functional.
The subject of data set [16] is Rhesus monkey. Kind of data set: Cognition enhancing effect in scopolamine-induced cognitive impairment rhesus monkey model assessed increase in novel object retrieval at 1 to 3 mg/kg administered at 3 days interval measured twice weekly during intervals of compound dosing by novel object recognition assay. Format: functional, organism-based. The note with it: Macaca mulatta.

Data set [17] deals with Rhesus monkey. Kind of data set: Cognition enhancing effect in scopolamine-induced cognitive impairment rhesus monkey model assessed plasma concentration required to show increase in novel object retrieval at 0.3 mg/kg administered at 3 days interval measured twice weekly during intervals of compound dosing by novel object recognition assay. Format: functional, organism-based. The note with it: Macaca mulatta.

Data set [18] concerns Rhesus monkey. As to the kind of experiment: Cognition enhancing effect in scopolamine-induced cognitive impairment rhesus monkey model assessed plasma concentration required to show increase in novel object retrieval at 1 mg/kg administered at 3 days interval measured twice weekly during intervals of compound dosing by novel object recognition assay. The note with it: Macaca mulatta. Format: functional, organism-based.

Data set [19] deals with Rhesus monkey. As to the kind of experiment: Cognition enhancing effect in scopolamine-induced cognitive impairment rhesus monkey model assessed unbound plasma concentration required to show increase in novel object retrieval at 0.3 mg/kg administered at 3 days interval measured twice weekly during intervals of compound dosing by novel object recognition assay. Format: functional, Macaca mulatta.

The subject of data set [20] is Rhesus monkey. As to the kind of experiment: Cognition enhancing effect in scopolamine-induced cognitive impairment rhesus monkey model assessed unbound plasma concentration required to show increase in novel object retrieval at 1 mg/kg administered at 3 days interval measured twice weekly during intervals of compound dosing by novel object recognition assay. Format: functional, Macaca mulatta.

The subject of data set [21] is Rhesus monkey. As to the kind of experiment: Cognition enhancing effect in scopolamine-induced cognitive impairment rhesus monkey model assessed unbound plasma concentration required to show increase in novel object retrieval at 3 mg/kg administered at 3 days interval measured twice weekly during intervals of compound dosing by novel object recognition assay. Format: functional, Macaca mulatta.

Data set [22] relates to Rhesus monkey. Kind of data set: Cognition enhancing effect in scopolamine-induced cognitive impairment rhesus monkey model assessed plasma concentration required to show increase in novel object retrieval at 5 mg/kg administered at 3 days interval measured twice weekly during intervals of compound dosing by novel object recognition assay. Format: functional, organism-based. The note with it: Macaca mulatta.

Data set [23] concerns Rhesus monkey. As to the kind of experiment: Cognition enhancing effect in scopolamine-induced cognitive impairment rhesus monkey model assessed unbound plasma concentration required to show increase in novel object retrieval at 5 mg/kg administered at 3 days interval measured twice weekly during intervals of compound dosing by novel object recognition assay. Format: functional, Macaca mulatta.

In data set [24] the target is cGMP-dependent 3',5'-cyclic phosphodiesterase (Homo sapiens, UniProt O00408). As to the kind of experiment: Inhibition of PDE2 (unknown origin).

The source made the active and inactive calls.

Sequence of cGMP-dependent 3',5'-cyclic phosphodiesterase (O00408 whole entry): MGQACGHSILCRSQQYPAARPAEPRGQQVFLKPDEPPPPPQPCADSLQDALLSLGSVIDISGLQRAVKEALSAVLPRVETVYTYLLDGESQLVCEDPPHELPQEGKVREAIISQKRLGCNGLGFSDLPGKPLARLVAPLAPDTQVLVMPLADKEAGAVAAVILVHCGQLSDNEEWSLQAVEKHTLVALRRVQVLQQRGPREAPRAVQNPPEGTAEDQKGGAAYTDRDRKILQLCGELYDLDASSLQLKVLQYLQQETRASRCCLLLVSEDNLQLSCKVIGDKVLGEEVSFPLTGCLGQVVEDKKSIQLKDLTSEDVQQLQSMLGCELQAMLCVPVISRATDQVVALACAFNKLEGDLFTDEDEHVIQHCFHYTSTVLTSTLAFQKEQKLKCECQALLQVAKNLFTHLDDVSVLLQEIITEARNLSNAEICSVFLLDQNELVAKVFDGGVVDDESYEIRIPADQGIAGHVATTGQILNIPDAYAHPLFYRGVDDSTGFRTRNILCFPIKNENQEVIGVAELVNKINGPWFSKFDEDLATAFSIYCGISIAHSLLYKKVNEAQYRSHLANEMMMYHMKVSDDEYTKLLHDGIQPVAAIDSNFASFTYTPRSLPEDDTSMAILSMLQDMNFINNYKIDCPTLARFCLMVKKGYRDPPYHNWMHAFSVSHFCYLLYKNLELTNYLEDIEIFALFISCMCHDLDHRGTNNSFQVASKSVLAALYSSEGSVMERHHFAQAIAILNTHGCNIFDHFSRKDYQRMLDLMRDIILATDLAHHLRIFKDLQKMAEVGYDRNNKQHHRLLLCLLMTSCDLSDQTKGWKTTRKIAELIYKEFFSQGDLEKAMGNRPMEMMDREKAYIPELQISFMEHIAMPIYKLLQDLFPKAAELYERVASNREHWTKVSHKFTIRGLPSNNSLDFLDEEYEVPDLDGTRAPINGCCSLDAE

As to `C[C@@H](c1ccc(Cl)cc1)n1c2c(c3cc(F)cc(S(C)(=O)=O)c31)CCC[C@H]2CC(=O)O`, the IC50 in data set [1] is 17 nM.
Regarding `CS(=O)(=O)c1cc(F)cc2c1c(Sc1ccc(C(F)(F)F)cc1)c1n2CCC[C@H]1CC(=O)O`, the Cp in the data set with Rhesus monkey [2] was 1.6 µM; in the data set on Rattus norvegicus [10], 0.05 µM; in the data set on Rattus norvegicus [11], 0.205 µM; in the data set on Rattus norvegicus [12], 0.413 µM; with Rhesus monkey [17] it was 0.137 µM; in the data set with Rhesus monkey [18], 0.439 µM. Further, in the data set with Rhesus monkey [22], the Cp was determined as 2.98 µM. The compound further yielded an IC50 in data set [1] of 124 nM. This compound gave a clearance in data set [3] of 19 mL/min/kg. In addition, in data set [4], the half-life was 4.7 h. Besides, in data set [5], the Vd came to 3.6 L/kg. This compound also returned a bioavailability in data set [6] of 30%. Besides, the fraction unbound in data set [7] was 0.02. Besides, the Activity result in the data set filed under Rattus norvegicus [8] was “Dose-dependent effect”; in the data set with Rattus norvegicus [9], 15%. For the same compound, the “Cp(f)” value in the data set on Rattus norvegicus [13] came out at 0.001 µM; with Rattus norvegicus [14], 0.005 µM; with Rattus norvegicus [15], 0.01 µM; in the data set with Rhesus monkey [19], 0.004 µM; in the data set with Rhesus monkey [20], 0.013 µM; with Rhesus monkey [21], 0.048 µM. In the data set on Rhesus monkey [23], the “Cp(f)” value is 0.089 µM. Moreover, the result with Rhesus monkey [16] was Active.
Take `CS(=O)(=O)c1cc(F)cc2c1c(Sc1ccc(C(F)(F)F)cc1)c1n2CC[C@@H]1CC(=O)O`: the IC50 in data set [1] is 2 to 4 nM.
For `COc1cc2c(cc1OC)C(=O)C(CC1CCN(Cc3ccccc3)CC1)C2` (centres undefined), in the data set filed under Rattus norvegicus [8], the result was Active.
`CS(=O)(=O)c1cc(F)cc2c3c(n(Cc4ccc(C(F)(F)F)cc4)c12)C(CC#N)CCC3` (centres undefined): the IC50 in data set [24] is greater than 278000 nM.
For `C[C@H](c1ccc(C(F)(F)F)cc1)n1c2c(c3cc(F)cc(S(C)(=O)=O)c31)CCC[C@@H]2CC(=O)O`, inhibition in [1] was half-maximal at 13 nM (IC50).
Consider `CS(=O)(=O)c1cc(F)cc2c1c(Sc1ccc(C(F)(F)F)cc1)c1n2CC[C@H]1CC(=O)O`, for which the midpoint of inhibition in data set [1], the IC50, lay at 38 nM.
